IC50 data for 13 compounds are collected here from patent publication US11382918B2, “Methods for treating Huntington's Disease” (PTC Therapeutics, Inc., priority 2017, dated 2022).

Where only a bound is given, the exact number is not on record here.

The assay relates to Endogenous Huntingtin Protein (HTT). Put plainly: Endogenous Huntingtin Protein Assay (ELISA-based MSD electrochemiluminescence). It is filed as cell-based. The note with it: Table 1. In a few lines:
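HTT protein in lysates was measured by electrochemiluminescence on the MSD platform. Rabbit monoclonal 5656S followed by SULFO-TAG anti-rabbit antibody served for detection after overnight 4 °C capture with MAB2166 or the polyglutamine-directed MW1 antibody.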
On the technique in general: ELISA stands for enzyme-linked immunosorbent assay.
As a reminder, the IC50 is the point on the concentration scale where inhibition reaches its midpoint. In the case of `Cc1cn2nc(-c3cc(=O)n4cc(C5CCN(C)CC5)ncc4n3)cc2c(C)n1` [compound 503, 2-(4,6-dimethylpyrazolo[1,5-a]pyrazin-2-yl)-7-(1-methylpiperidin-4-yl)-4H-pyrazino[1,2-a]pyrimidin-4-one], the IC50 fell in the range of 1 to 3 µM.
Next, `CCN1CCC(c2cn3c(=O)cc(-c4cc5c(C)nc(C)cn5n4)nc3cn2)CC1` [compound 504, 2-(4,6-dimethylpyrazolo[1,5-a]pyrazin-2-yl)-7-(1-ethylpiperidin-4-yl)-4H-pyrazino[1,2-a]pyrimidin-4-one]: 0.1 to 0.5 µM.
As to `Cn1ncc2cc(-c3cc(=O)n4cc(C5=CCNCC5)ncc4n3)ccc21` [compound 505, 2-(1-methyl-1H-indazol-5-yl)-7-(1,2,3,6-tetrahydropyridin-4-yl)-4H-pyrazino[1,2-a]pyrimidin-4-one], the IC50 fell in the range of 3 to 33 µM.
Next, `CN1CC=C(c2cn3c(=O)cc(-c4ccc5c(cnn5C)c4)nc3cn2)CC1` [compound 506, 2-(1-methyl-1H-indazol-5-yl)-7-(1-methyl-1,2,3,6-tetrahydropyridin-4-yl)-4H-pyrazino[1,2-a]pyrimidin-4-one]: 3 to 33 µM; `CCN1CC=C(c2cn3c(=O)cc(-c4ccc5c(cnn5C)c4)nc3cn2)CC1` [compound 507, 7-(1-ethyl-1,2,3,6-tetrahydropyridin-4-yl)-2-(1-methyl-1H-indazol-5-yl)-4H-pyrazino[1,2-a]pyrimidin-4-one]: 3 to 33 µM.
The compound `Cc1cn2cc(-c3cc(=O)n4cc(C5CCNCC5)ccc4n3)cc(Cl)c2n1` [compound 516, 2-(8-chloro-2-methylimidazo[1,2-a]pyridin-6-yl)-7-(piperidin-4-yl)-4H-pyrido[1,2-a]pyrimidin-4-one] displayed an IC50 of less than 0.1 µM.
The compound `Cc1cn2nc(-c3cc(=O)n4cc(C5CCN(CCO)CC5)ccc4n3)cc2c(C)n1` [compound 530, 2-(4,6-dimethylpyrazolo[1,5-a]pyrazin-2-yl)-7-[1-(2-hydroxyethyl)piperidin-4-yl]-4H-pyrido[1,2-a]pyrimidin-4-one] displayed an IC50 of 3 to 33 µM.
Next, `Cc1cn2nc(-c3cc(=O)n4cc(N5CCN(CCO)CC5)ccc4n3)cc2c(C)n1` [compound 531, 2-(4,6-dimethylpyrazolo[1,5-a]pyrazin-2-yl)-7-[4-(2-hydroxyethyl)piperazin-1-yl]-4H-]: 3 to 33 µM; `Cc1cn2nc(-c3cc(=O)n4cc(N5CCN(CCO)[C@H](C)C5)ccc4n3)cc2c(C)n1` [compound 532, 2-(4,6-dimethylpyrazolo[1,5-a]pyrazin-2-yl)-7-[(3R)-4-(2-hydroxyethyl)-3-methylpiperazin-1-yl]-4H-pyrido[1,2-a]pyrimidin-4-one]: 1 to 3 µM; `Cc1cn2cc(-c3cc(=O)n4cc(N5CCN(CCOCCO)[C@@H](C)C5)ccc4n3)cc(F)c2n1` [compound 540, 2-(8-fluoro-2-methylimidazo[1,2-a]pyridin-6-yl)-7-{(3S)-4-[2-(2-hydroxyethoxy)ethyl]-3-methylpiperazin-1-yl}-4H-pyrido[1,2-a]pyrimidin-4-one]: 1 to 3 µM.
The compound `C[C@@H]1CN(c2ccc3nc(-c4ccc5c(cnn5C)c4)cc(=O)n3c2)CCN1` [compound 545, 2-(1-methyl-1H-indazol-5-yl)-7-[(3R)-3-methylpiperazin-1-yl]-4H-pyrido[1,2-a]pyrimidin-4-one] had a half-maximal inhibitory concentration (IC50) of 3 to 33 µM.
`CCc1nc(C)cn2nc(-c3cc(=O)n4cc(N5CCNCC5)ccc4n3)cc12` [compound 546, 2-(4-ethyl-6-methylpyrazolo[1,5-a]pyrazin-2-yl)-7-(piperazin-1-yl)-4H-pyrido[1,2-a]pyrimidin-4-one] displayed an IC50 of 1 to 3 µM.
Next, `CCc1nc(C)cn2nc(-c3cc(=O)n4cc(N5CCN(CCO)CC5)ccc4n3)cc12` [compound 549, 2-(4-ethyl-6-methylpyrazolo[1,5-a]pyrazin-2-yl)-7-[4-(2-hydroxyethyl)piperazin-1-yl]-4H-pyrido[1,2-a]pyrimidin-4-one]: 3 to 33 µM.
